Consider three molecules from publication PMC6274388, “Deoxyelephantopin from Elephantopus scaber Inhibits HCT116 Human Colorectal Carcinoma Cell Growth through Apoptosis and Cell Cycle Arrest” (Molecules, 2016).

A value given as a limit tells only on which side of the number the result lay.

The test system of data set [1] is HCT116 human colorectal carcinoma cells. Put plainly: MTT cytotoxicity assay on HCT116 cells. In kind it is cell-based. The conditions noted are these: for IC50: Homo sapiens, HCT-116, HCT116, MTT; for cell viability: HCT116, 72 h, 0.39–25.0 µg/mL. The protocol: (§1) HCT116 human colorectal cancer cells and CCD841-CoN normal cells were obtained from the American Type Culture Collection (ATCC, Manassas, VA, USA). HCT116 cells and CCD841-CoN normal cells were cultured in RPMI-1640 and EMEM media respectively, with 10% v/v heat-inactivated fetal bovine serum (FBS), 100 µg/mL penicillin streptomycin and 50 µg/mL amphotericin B at 37 °C in 5% CO2 incubator.
(§2) To investigate the cytotoxic effect of each fraction and compounds, the MTT assay was utilized. Cells were seeded and exposed to different concentrations (0.38–25 µg/mL) of each fraction which was dissolved in DMSO. 5-fluorouracil (5-FU) was used as positive control. Untreated cells (negative control) were treated with vehicle dimethyl sulfoxide (DMSO). The final concentration of DMSO was below 0.5% v/v in all experiments. MTT (5 mg/mL) was then added to each well after treatment and incubated for another 4 h at 37 °C. Subsequently, the medium was discarded and replaced by 150 µL of DMSO to dissolve the formazan crystals followed by quantified at 570 nm and 650 nm as a background using a microplate reader (Asys UVM340, Biochrom, Eugendorf, Austria). The percentage of cell viability was calculated according to the following equation: Cell viability percentage (%) = (Absorbance of treated cells/absorbance of untreated cells) × 100%.
On the technique in general: Tetrazolium assays rely on reduction of a dye to a coloured formazan, in cell work by metabolically active cells.

In data set [2] the test system is CCD841CoN normal colon cells. Put plainly: MTT cytotoxicity assay on CCD841CoN normal colon cells. It counts as cell-based, human. As to conditions: for IC50: Homo sapiens, CCD-841CoN, MTT, 72 h. The method, then:
as §1, §2

For data set [3], the system named is HCT116 cells. Put plainly: Externalization of phosphatidylserine, Annexin V-FITC/PI staining, flow cytometry. It counts as cell-based, human. As to conditions: 24 h. The method, then: 1 × 10^6 HCT116 cells were plated in 60 mm^2 culture dishes and exposed to different concentrations of DET (0.75, 1.5 and 3.0 µg/mL) for 24 h. Subsequently, cells were washed with PBS, resuspended in 1× Annexin V binding buffer and stained with Annexin V-fluorescein-isothiocyanate (FITC) (BD) and propidium iodide (PI) in the dark at room temperature for 15 min. 1× binding buffer was then added into each tube. The apoptotic and necrotic cell populations were then examined by flow cytometry. The fluorescence intensity was detected in FL1-A (x-axis) and FL2-A channel (y-axis).
On the technique in general: A flow cytometer gives signals particle by particle.

For data set [4], the system named is HCT116 cells. Kind of data set: Cell cycle distribution by PI flow cytometry. In kind it is cell-based, human. As to conditions: 24 h. The protocol:
1 × 10^6 HCT116 cells were plated in 60 mm^2 culture dishes and exposed to different concentrations of DET (0.75, 1.5 and 3.0 µg/mL) for 24 h. The cells were harvested and centrifuged at 300× g at room temperature. The cells were then resuspended in 1 mL of buffer solution followed by centrifugation and washing with buffer solution. Subsequently, 250 µL of Solution A (trypsin buffer) was added and incubated for 10 min, followed by addition of 100 µL of Solution B (trypsin inhibitor and RNase buffer) and incubated at room temperature for 10 min. 200 µL of cold PI solution was added, gently mixed and incubated on ice for 10 min in the dark. Finally, samples were assessed by using flow cytometry (BD, San Jose, CA, USA).

Data set [5] deals with HCT116 cells. Kind of data set: Nuclear morphological changes, Hoechst 33342/PI staining. In kind it is cell-based, human. The conditions noted are these: HCT116, 0.75, 1.5 and 3.0 µg/mL, 24 h, dose-dependent. The method, then: 1 × 10^6 HCT116 cells were plated in 60 mm^2 culture dishes and treated with increasing concentrations of DET (0.75, 1.5 and 3.0 µg/mL) while negative control was treated with the vehicle DMSO for 24 h. Then, the cells were collected, washed with PBS and proceed to staining with Hoechst 33342 (40 µg/mL) and propidium iodide solution (10 µg/mL) at room temperature in the dark for 30 min. The cells were then examined by inverted fluorescence microscopy (DM1600B, Leica, Wetzlar, Germany).

In data set [6] the test system is cleaved caspase-3. Kind of data set: Western blot, cleaved caspase-3 in HCT116 cells. As to conditions: HCT116, 0.75, 1.5 and 3.0 µg/mL, 24 h. In kind it is cell-based, human. The protocol: (§3) 1 × 10^6 HCT116 cells were plated in 60 mm^2 culture dishes and exposed to varying concentrations of DET (0.75, 1.5 and 3.0 µg/mL) for 24 h. The cells were collected, resuspended in cold RIPA buffer containing protease and phosphatase inhibitors and placed on ice for 5 min followed by centrifugation at 14,000× g for 15 min at 4 °C. 25 μg of total proteins was separated on the 12% SDS-PAGE gels and transferred onto nitrocellulose membranes, followed by the blocking using skim milk/bovine serum albumin for 1 h. Membranes were incubated with primary antibodies (cleaved PARP, cleaved caspase-3, p-p53, p21, CDK2, CDK4, CDK 6, cyclin D1, cyclin A2, cyclin B, cyclin E and GAPDH, Cell Signaling) at 4 °C overnight. Subsequently, the membranes were washed with TBST (0.05% Tween 20 in TBS) and incubated with corresponding anti-mouse/rabbit immunoglobulin G-horseradish peroxidase-conjugated secondary antibody (Cell Signaling, Danvers, MA, USA) at room temperature for 1 h. Then, the membranes were washed with TBST. The bands was detected by using enhanced chemiluminescence (ECL) detection kit (BioRad, Hercules, CA, USA) and visualized using gel documentation system. Protein bands were analyzed quantitatively and qualitatively with Vilber Lourmart.

The subject of data set [7] is cleaved PARP. Kind of data set: Western blot, cleaved PARP in HCT116 cells. It counts as cell-based, human. The conditions noted are these: HCT116, 0.75, 1.5 and 3.0 µg/mL, 24 h. The method, then:
as §3
In general terms: Immunoblotting shows a protein as a band on a membrane.

Data set [8] has as its system CDK4. Kind of data set: Western blot, CDK4 in HCT116 cells. In kind it is cell-based, human. As to conditions: HCT116, 0.75, 1.5 and 3.0 µg/mL, 24 h. The method, then: as §3
Data set [9] deals with CDK2. Kind of data set: Western blot, CDK2 in HCT116 cells. The conditions noted are these: HCT116, 0.75, 1.5 and 3.0 µg/mL, 24 h. In kind it is cell-based, human. The protocol:
as §3

Data set [10] relates to cyclin A2. Put plainly: Western blot, cyclin A2 in HCT116 cells. In kind it is cell-based, human. The conditions noted are these: HCT116, 0.75, 1.5 and 3.0 µg/mL, 24 h. The method, then: as §3
For data set [11], the system named is cyclin B1. Kind of data set: Western blot, cyclin B1 in HCT116 cells. In kind it is cell-based, human. The conditions noted are these: HCT116, 0.75, 1.5 and 3.0 µg/mL, 24 h. The method, then:
as §3

Data set [12] relates to cyclin E2. Kind of data set: Western blot, cyclin E2 in HCT116 cells. As to conditions: HCT116, 0.75, 1.5 and 3.0 µg/mL, 24 h. It counts as cell-based, human. The protocol:
as §3

Data set [13] concerns cyclin D1. Kind of data set: Western blot, cyclin D1 in HCT116 cells. In kind it is cell-based, human. As to conditions: HCT116, 0.75, 1.5 and 3.0 µg/mL, 24 h. The method, then: as §3
The test system of data set [14] is CDK6. Kind of data set: Western blot, CDK6 in HCT116 cells. The conditions noted are these: HCT116, 0.75, 1.5 and 3.0 µg/mL, 24 h. It counts as cell-based, human. The method, then:
as §3

Data set [15] has as its system p21. Put plainly: Western blot, p21 in HCT116 cells. In kind it is cell-based, human. As to conditions: HCT116, 0.75, 1.5 and 3.0 µg/mL, 24 h. The protocol:
as §3

For data set [16], the system named is phospho-p53. Put plainly: Western blot, phospho-p53 in HCT116 cells. As to conditions: HCT116, 0.75, 1.5 and 3.0 µg/mL, 24 h. It counts as cell-based, human. The protocol: as §3
Setting [17] is: 72 h, value in brackets after the µg/mL value.
Setting [18] is: CCD841-CoN normal cell line, mean ± S.E. (n = 9).

For orientation: IC50 means the midpoint of a concentration-inhibition curve. For `O=c1[nH]cc(F)c(=O)[nH]1` [5-Fluorouracil, 5-fluorouracil, reference compound], the IC50 in data set [1] (72 h, mean ± S.E. (n = 9)) is 0.73 ± 0.02 µg/mL; in data set [1] (setting [17]), 5 µM; in data set [2] (setting [18]) it was over 25 µg/mL.
Turning to `C=C(C)C(=O)O[C@H]1CC2=C[C@@H](C/C(C)=C/[C@H]3OC(=O)C(=C)[C@H]13)OC2=O` [Deoxyelephantopin, deoxyelephantopin], the cell viability result in data set [1] was “dose-dependent reduction of cell viability”. Moreover, the IC50 in [1] (24 h) came out at 2.36 ± 0.02 µg/mL; in data set [1] (48 h), 0.9 ± 0.02 µg/mL; in data set [1] (72 h, mean ± S.E. (n = 9)), 0.73 ± 0.01 µg/mL; in [1] (setting [17]) it was 2.12 µM; in [2] (setting [18]), 21.7 ± 0.92 µg/mL; in [2] (CCD841CoN normal cells, value in brackets after the µg/mL value), 60 µM. Further, in [2] (IC50 at 72 h), the “difference in cytotoxicity, CCD841CoN normal cells compared to HCT116 cells” value is on record as 30 fold. In addition, the “accumulation of apoptotic cells compared to untreated control” value in [3] (HCT116, 0.75 μg/mL) was “significant accumulation of apoptotic cells”. Further, the “proportion of apoptotic cells (early and late apoptotic phases)” value in data set [3] (HCT116, 3.0 µg/mL) was 63.63% ± 2.03%. Also, the necrotic cell death result in data set [3] (HCT116, 0.75–3.0 µg/mL) is reported as “did not significantly induce necrotic cell death”. Further, the viability at 0.75 µg/mL in data set [3] (Homo sapiens, HCT-116, HCT116, 0.75 μg/mL, representative plot, read-out: Q1-LL cells (annexin−/PI−, viable)) turned out to be 74.8%. Moreover, the viability at 1.5 µg/mL in [3] (Homo sapiens, HCT-116, HCT116, 1.50 μg/mL, representative plot, read-out: Q1-LL cells (annexin−/PI−, viable)) is 59.8%. Further, in data set [3] (Homo sapiens, HCT-116, HCT116, 3.00 μg/mL, representative plot, read-out: Q1-LL cells (annexin−/PI−, viable)), the viability at 3 µg/mL was 34.1%. The “cells in the S phase” value in data set [4] (HCT116, 1.5 µg/mL) is 28.17% ± 0.23%; in data set [4] (HCT116, 3.0 µg/mL), 29.25% ± 0.21%. The cell cycle progression entry in data set [4] (HCT116, 0.75, 1.5 and 3.0 µg/mL) is “cell cycle arrest at S phase”. For the same molecule, the “apoptotic morphological changes (chromatin condensation, cell shrinkage, DNA fragmentation)” value in data set [5] is on record as “apoptosis-inducing effect”. The “cleaved caspase-3 protein expression” value in data set [6] is on record as “dose-dependent upregulation”. In addition, the “cleaved PARP protein expression” value in data set [7] is reported as “dose-dependent upregulation”. The CDK4 protein expression entry in [8] is “significant downregulation”. The CDK2 protein expression entry in [9] was “significant downregulation”. Besides, in [10], the “cyclin A2 protein expression” value was “significant downregulation”. Further, the “cyclin B1 protein expression” value in data set [11] is “significant downregulation”. The “cyclin E2 protein expression” value in data set [12] is “significant downregulation”. Moreover, the “cyclin D1 protein expression” value in data set [13] is given as “significant downregulation”. Besides, the CDK6 protein expression result in data set [14] is “remain constant”. Moreover, in data set [15], the p21 expression level result is on record as “upregulated”. In addition, the phospho-p53 expression level entry in data set [16] is recorded as “upregulated”.
Turning to `C=C(C)C(=O)O[C@H]1CC2=C[C@H](C/C(C)=C/[C@H]3OC(=O)C(=C)[C@H]13)OC2=O` [Isodeoxyelephantopin, isodeoxyelephantopin], in data set [1], the cell viability entry was “dose-dependent reduction of cell viability”. Also, the 50% inhibitory concentration (IC50) came to 0.88 ± 0.02 µg/mL in data set [1] (72 h, mean ± S.E. (n = 9)) and 2.56 µM in [1] (setting [17]).
